From patent US10543212B2, “Substituted amines for treating cardiac diseases” (Cardurion Pharmaceuticals, LLC, priority 2017, dated 2020)

These molecules were tested against T1, Full-length, GST-tagged, human CaMKIIδ (Homo sapiens, UniProt Q13557) (assay: CaMKIIδ binding assay (TR-FRET with BODIPY-labeled probe ligand)). Settings: CaMKIIδ binding assay, results of Table 2.
T1 construct: Full-Length, Glutathione-S-Transferase(GST)-Tagged, Human CaMKIIδ was purchased from Carna Biosciences; purchased Carna Biosciences 02-111
T1 sequence (Q13557 1-478 isoform Q13557-12): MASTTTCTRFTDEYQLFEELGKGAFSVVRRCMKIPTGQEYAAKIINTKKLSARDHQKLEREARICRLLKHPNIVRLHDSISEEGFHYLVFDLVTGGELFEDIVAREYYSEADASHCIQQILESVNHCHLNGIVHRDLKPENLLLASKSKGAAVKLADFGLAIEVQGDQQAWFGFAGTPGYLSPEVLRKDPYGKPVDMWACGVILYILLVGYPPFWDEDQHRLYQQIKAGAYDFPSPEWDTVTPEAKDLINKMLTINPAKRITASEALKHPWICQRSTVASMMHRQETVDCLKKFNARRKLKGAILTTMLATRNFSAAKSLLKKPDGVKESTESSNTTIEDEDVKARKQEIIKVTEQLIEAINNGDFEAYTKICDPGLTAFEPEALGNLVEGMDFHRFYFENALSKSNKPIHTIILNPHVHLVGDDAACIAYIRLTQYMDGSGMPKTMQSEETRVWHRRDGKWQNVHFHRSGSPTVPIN
Procedure, shortened: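 Compounds were tested as 4-fold, eight-point series for 1 hr at room temperature, and IC50 was obtained by logistic fitting against a 3 μM parent-compound control. Signal came from displacement of a 300 nM BODIPY ligand from 0.5 nM GST-CaMKIIδ, detected via Tb-anti-GST in calmodulin/Ca2+ (pH 7.6).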

Structure (SMILES)	IC50 [nM]
C[C@@H](Cn1cnnn1)Oc1cc(-c2cnc(Nc3cc4c(cc3C3CC3)CCN(C3COC3)C4)nc2)ccc1C#N [Example 524, (S)-2-((1-(1H-tetrazol-1-yl)propan-2-yl)oxy)-4-(2-((6-cyclopropyl-2-(oxetan-3-yl)-1,2,3,4-tetrahydroisoquinolin-7-yl)amino)pyrimidin-5-yl)benzonitrile]	10 to 100
C[C@@H](Cn1cnnn1)Oc1cc(-c2cnc(Nc3cc4c(cc3Cl)CCNCC4)nc2)ccc1Cl [Example 507, (S)-N-(5-(3-((1-(1H-tetrazol-1-yl)propan-2-yl)oxy)-4-chlorophenyl)pyrimidin-2-yl)-8-chloro-2,3,4,5-tetrahydro-1H-benzo[d]azepin-7-amine]	< 10
COc1ccc(N2CCC(N3CCOCC3)CC2)cc1Nc1ncc(-c2ccc(C#N)c(O[C@@H](C)COC(F)F)c2)cn1 [Example 495, (S)-2-((1-(difluoromethoxy)propan-2-yl)oxy)-4-(2-((2-methoxy-5-(4-morpholinopiperidin-1-yl)phenyl)amino)pyrimidin-5-yl)benzonitrile]	10 to 100
C[C@@H](Cn1cnnn1)Oc1cc(-c2cnc(Nc3ccc4c(c3)N(C(=O)CCCN(C)C)CC4)nc2)ccc1Cl [Example 436, (S)-1-(6-((5-(3-((1-(1H-tetrazol-1-yl)propan-2-yl)oxy)-4-chlorophenyl)pyrimidin-2-yl)amino)indolin-1-yl)-4-(dimethylamino)butan-1-one]	< 10
COc1cc2c(cc1Nc1ncc(-c3ccc(Cl)c(O[C@@H](C)Cn4cnnn4)c3)cn1)C(=O)N(C1CCC1)C2 [Example 441, (S)-6-((5-(3-((1-(1H-tetrazol-1-yl)propan-2-yl)oxy)-4-chlorophenyl)pyrimidin-2-yl)amino)-2-cyclobutyl-5-methoxyisoindolin-1-one]	10 to 100
COc1ccc(C(=O)N2CCN(C)CC2)cc1Nc1ncc(-c2ccc(Cl)c(O[C@@H](C)Cn3cnnn3)c2)cn1 [Example 569, (S)-(3-((5-(3-((1-(1H-tetrazol-1-yl)propan-2-yl)oxy)-4-chlorophenyl)pyrimidin-2-yl)amino)-4-methoxyphenyl) (4-methylpiperazin-1-yl)methanone]	< 10
COc1cc2c(cc1Nc1ncc(-c3ccc(Cl)c(O[C@@H](C)Cn4cnnn4)c3)cn1)N(CC1COC1)CC2 [Example 503, (S)-N-(5-(3-((1-(1H-tetrazol-1-yl)propan-2-yl)oxy)-4-chlorophenyl)pyrimidin-2-yl)-5-methoxy-1-(oxetan-3-ylmethyl)indolin-6-amine]	10 to 100
C[C@@H](Cn1cnnn1)Oc1cc(-c2cnc(Nc3cn(C4CCNCC4)nc3C(F)(F)F)nc2)ccc1Cl [Example 483, (S)-5-(3-((1-(1H-tetrazol-1-yl)propan-2-yl)oxy)-4-chlorophenyl)-N-(1-(piperidin-4-yl)-3-(trifluoromethyl)-1H-pyrazol-4-yl)pyrimidin-2-amine]	< 10
C[C@@H](Cn1cnnn1)Oc1cc(-c2cnc(Nc3cc(N4CCC(N5CCOCC5)CC4)ncc3OC(F)(F)F)nc2)ccc1C#N [Example 543, (S)-2-((1-(1H-tetrazol-1-yl)propan-2-yl)oxy)-4-(2-((2-(4-morpholinopiperidin-1-yl)-5-(trifluoromethoxy)pyridin-4-yl)amino)pyrimidin-5-yl)benzonitrile]	< 10
C[C@@H](Cn1cnnn1)Oc1cc(-c2cnc(Nc3ccc4c(c3)CCN4)nc2)ccc1Cl [Example 451, (S)-N-(5-(3-((1-(1H-tetrazol-1-yl)propan-2-yl)oxy)-4-chlorophenyl)pyrimidin-2-yl)indolin-5-amine]	10 to 100
C[C@@H](Cn1cnnn1)Oc1cc(-c2cnc(Nc3cn(C4CCN(CC(F)F)CC4)nc3C(F)(F)F)nc2)ccc1Cl [Example 485, (S)-5-(3-((1-(1H-tetrazol-1-yl)propan-2-yl)oxy)-4-chlorophenyl)-N-(1-(1-(2,2-difluoroethyl)piperidin-4-yl)-3-(trifluoromethyl)-1H-pyrazol-4-yl)pyrimidin-2-amine]	10 to 100

Same assay, conditions: CaMKIIδ binding assay; activity class per Table 2

Structure (SMILES)	IC50 [nM]
C[C@@H](Cn1cnnn1)Oc1cc(-c2cnc(Nc3cn(C4CC5(C4)CN(C4COC4)C5)nc3OCC(F)(F)F)nc2)ccc1C(F)F [Example 950, (S)-5-(3-((1-(1H-tetrazol-1-yl)propan-2-yl)oxy)-4-(difluoromethyl)phenyl)-N-(1-(2-(oxetan-3-yl)-2-azaspiro[3.3]heptan-6-yl)-3-(2,2,2-trifluoroethoxy)-1H-pyrazol-4-yl)pyrimidin-2-amine]	< 10
CC(C)c1nn(C2CC3(C2)CN(C2(C)CCOC2)C3)cc1Nc1ncc(-c2ccc(Cl)c(O[C@@H](C)Cn3cnnn3)c2)cn1 (stereo partly drawn) [Example 956, 5-(3-(((S)-1-(1H-tetrazol-1-yl)propan-2-yl)oxy)-4-chlorophenyl)-N-(3-isopropyl-1-(2-(3-methyltetrahydrofuran-3-yl)-2-azaspiro[3.3]heptan-6-yl)-1H-pyrazol-4-yl)pyrimidin-2-amine]	< 10
CCC1(N2CC3(CC(n4cc(Nc5ncc(-c6ccc(Cl)c(O[C@@H](C)Cn7cnnn7)c6)cn5)c(OCC(F)(F)F)n4)C3)C2)CCOCC1 [Example 955, (S)-5-(3-((1-(1H-tetrazol-1-yl)propan-2-yl)oxy)-4-chlorophenyl)-N-(1-(2-(4-ethyltetrahydro-2H-pyran-4-yl)-2-azaspiro[3.3]heptan-6-yl)-3-(2,2,2-trifluoroethoxy)-1H-pyrazol-4-yl)pyrimidin-2-amine]	< 10
C[C@@H](Cn1cnnn1)Oc1cc(-c2cnc(Nc3cn(CC4(O)CCN(C5CCC5)CC4)nc3OCC(F)(F)F)nc2)ccc1Cl [Example 908, (S)-4-((4-((5-(3-((1-(1H-tetrazol-1-yl)propan-2-yl)oxy)-4-chlorophenyl)pyrimidin-2-yl)amino)-3-(2,2,2-trifluoroethoxy)-1H-pyrazol-1-yl)methyl)-1-cyclobutylpiperidin-4-ol]	< 10

Same assay, conditions: Table 2; CaMKIIδ binding assay, activity given as class A/B/C

Structure (SMILES)	IC50 [nM]
C[C@@H](Cn1cnnn1)Oc1cc(-c2cnc(Nc3cn(C4CCN(C)CC4)nc3OCC(F)F)nc2)ccc1Cl [Example 793, (S)-5-(3-((1-(1H-tetrazol-1-yl)propan-2-yl)oxy)-4-chlorophenyl)-N-(3-(2,2-difluoroethoxy)-1-(1-methylpiperidin-4-yl)-1H-pyrazol-4-yl)pyrimidin-2-amine]	< 10
C[C@@H](Cn1cnnn1)Oc1cc(-c2cnc(Nc3cn([C@H]4CC[C@H](N5CCC[C@H]5CO)CC4)nc3OC[C@@H]3CC3(F)F)nc2)ccc1Cl [Example 871, ((S)-1-(trans-4-(4-((5-(3-(((S)-1-(1H-tetrazol-1-yl)propan-2-yl)oxy)-4-chlorophenyl)pyrimidin-2-yl)amino)-3-(((S)-2,2-difluorocyclopropyl)methoxy)-1H-pyrazol-1-yl)cyclohexyl)pyrrolidin-2-yl)methanol]	< 10
C[C@@H](Cn1cnnn1)Oc1cc(-c2cnc(Nc3cn(C4CCC(CC(N)=O)CC4)nc3C(F)(F)F)nc2)ccc1Cl (stereo partly drawn) [Example 852, (S)-2-(4-(4-((5-(3-((1-(1H-tetrazol-1-yl)propan-2-yl)oxy)-4-chlorophenyl)pyrimidin-2-yl)amino)-3-(trifluoromethyl)-1H-pyrazol-1-yl)cyclohexyl)acetamide]	≥ 100
C[C@@H](Cn1cnnn1)Oc1cc(-c2cnc(Nc3cc(N4CCN(C5CCOCC5)CC4)ccc3OC(F)(F)F)nc2)ccc1Cl [Example 768, (S)-5-(3-((1-(1H-tetrazol-1-yl)propan-2-yl)oxy)-4-chlorophenyl)-N-(5-(4-(tetrahydro-2H-pyran-4-yl)piperazin-1-yl)-2-(trifluoromethoxy)phenyl)pyrimidin-2-amine]	< 10
C[C@@H](Cn1cccn1)Oc1cc(-c2cnc(Nc3cn([C@H]4CC[C@@H](N5CCOCC5)CC4)nc3OCC(F)(F)F)nc2)ccc1C#N [Example 797, 2-(((S)-1-(1H-pyrazol-1-yl)propan-2-yl)oxy)-4-(2-((1-(cis-4-morpholinocyclohexyl)-3-(2,2,2-trifluoroethoxy)-1H-pyrazol-4-yl)amino)pyrimidin-5-yl)benzonitrile]	10 to 100
CCOC(=O)c1c(Nc2ncc(-c3ccc(Cl)c(O[C@@H](C)Cn4cnnn4)c3)cn2)cnn1CC [Example 872, ethyl (S)-4-((5-(3-((1-(1H-tetrazol-1-yl)propan-2-yl)oxy)-4-chlorophenyl)pyrimidin-2-yl)amino)-1-ethyl-1H-pyrazole-5-carboxylate]	< 10

Same assay, conditions: Table 2; activity class for CaMKIIδ

Structure (SMILES)	IC50 [nM]
C[C@@H](Cn1cnnn1)Oc1cc(-c2cnc(Nc3cc(N4CCN(C5CCOCC5)CC4)ncc3OC(F)(F)F)nc2)ccc1Cl [Example 705, (S)-5-(3-((1-(1H-tetrazol-1-yl)propan-2-yl)oxy)-4-chlorophenyl)-N-(2-(4-(tetrahydro-2H-pyran-4-yl)piperazin-1-yl)-5-(trifluoromethoxy)pyridin-4-yl)pyrimidin-2-amine]	< 10
CC(C)c1nn(C2CCN(C3CCOCC3)CC2)cc1Nc1ncc(-c2ccc(Cl)c(O[C@@H](C)Cn3cnnn3)c2)cn1 [Example 623, (S)-5-(3-((1-(1H-tetrazol-1-yl)propan-2-yl)oxy)-4-chlorophenyl)-N-(3-isopropyl-1-(1-(tetrahydro-2H-pyran-4-yl)piperidin-4-yl)-1H-pyrazol-4-yl)pyrimidin-2-amine]	< 10
C[C@@H](Cn1cnnn1)Oc1cc(-c2cnc(Nc3cn(CC4CCCO4)nc3C(F)(F)F)nc2)ccc1Cl (stereo partly drawn) [Example 710, 5-(3-(((S)-1-(1H-tetrazol-1-yl)propan-2-yl)oxy)-4-chlorophenyl)-N-(1-((tetrahydrofuran-2-yl)methyl)-3-(trifluoromethyl)-1H-pyrazol-4-yl)pyrimidin-2-amine]	10 to 100
CC(C)n1ccc(Nc2ncc(-c3ccc(Cl)c(O[C@@H](C)Cn4cnnn4)c3)cn2)n1 [Example 723, (S)-5-(3-((1-(1H-tetrazol-1-yl)propan-2-yl)oxy)-4-chlorophenyl)-N-(1-isopropyl-1H-pyrazol-3-yl)pyrimidin-2-amine]	10 to 100
